Earlier results on one compound are cited in US20040243224A1, “Methods and compositions for inhibiting narrowing in mammalian vascular pathways” (Medtronic Vascular, Inc., priority 2003, published 2004).

Details in all cases: stated as known in the art, no data
Data set [1] relates to laboratory tumor cell lines.
For data set [2], the system named is Tetrahymena furgasoni.
Data set [3] concerns Ustilago maydis.

Molecules are shown by their SMILES.

On to `COc1cc(O)c2c(c1)[C@H]1O[C@@H]1C[C@H](O)[C@H](O)C(=O)/C=C\C[C@H](C)OC2=O` [Hypothemycin, hypothemycin], for which the “anti-tumor activity on laboratory tumor cell lines” value in data set [1] is “exhibits anti-tumor activity”. For the same compound, in data set [2], the “activity against Tetrahymena furgasoni” value is on record as “active”. The “activity against Ustilago maydis” value in data set [3] was “active”.
